Literature values as cited in patent US6468258B1, “Plastic compositions including vitamin E for medical containers and methods for providing such compositions and containers” (Baxter International Inc., priority 1997, dated 2002).

Test system: red blood cells
Settings: Vitamin E added directly to red blood cells; as reported in U.S. Pat. No. 5,037,419

Question: Which hemolysis does the source give for Vitamin E here?
Answer: The hemolysis was “lower hemolysis”.
